Test results taken from ChEMBL document CHEMBL5291721, “A preclinical secondary pharmacology resource illuminates target-adverse drug reaction associations of marketed drugs” (Nat Commun, 2023).

What was measured:
[1] = target: T1, Muscarinic acetylcholine receptor M2 (Homo sapiens, UniProt P08172)
T1 sequence (P08172 whole entry): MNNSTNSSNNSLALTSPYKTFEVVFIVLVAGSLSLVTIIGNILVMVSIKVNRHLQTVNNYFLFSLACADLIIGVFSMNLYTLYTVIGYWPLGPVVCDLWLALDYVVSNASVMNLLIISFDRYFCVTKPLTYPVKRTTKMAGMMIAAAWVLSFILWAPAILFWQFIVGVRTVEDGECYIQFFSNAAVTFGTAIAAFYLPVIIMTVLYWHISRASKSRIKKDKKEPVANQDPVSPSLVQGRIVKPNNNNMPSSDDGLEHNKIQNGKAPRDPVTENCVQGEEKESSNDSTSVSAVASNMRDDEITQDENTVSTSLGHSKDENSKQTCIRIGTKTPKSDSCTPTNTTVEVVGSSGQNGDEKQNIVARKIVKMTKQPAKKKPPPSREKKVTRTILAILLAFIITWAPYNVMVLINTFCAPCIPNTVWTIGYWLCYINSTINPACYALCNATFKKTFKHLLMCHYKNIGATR

[2] = target: Sodium-dependent dopamine transporter (Homo sapiens, UniProt Q01959)
[3] = target: Sodium-dependent noradrenaline transporter (Homo sapiens, UniProt P23975)
[4] = target: T2, Prostaglandin G/H synthase 1 (Homo sapiens, UniProt P23219); assay type: functional
[5] = target: T3, Alpha-2A adrenergic receptor (Homo sapiens, UniProt P08913)
T3 sequence (P08913 whole entry): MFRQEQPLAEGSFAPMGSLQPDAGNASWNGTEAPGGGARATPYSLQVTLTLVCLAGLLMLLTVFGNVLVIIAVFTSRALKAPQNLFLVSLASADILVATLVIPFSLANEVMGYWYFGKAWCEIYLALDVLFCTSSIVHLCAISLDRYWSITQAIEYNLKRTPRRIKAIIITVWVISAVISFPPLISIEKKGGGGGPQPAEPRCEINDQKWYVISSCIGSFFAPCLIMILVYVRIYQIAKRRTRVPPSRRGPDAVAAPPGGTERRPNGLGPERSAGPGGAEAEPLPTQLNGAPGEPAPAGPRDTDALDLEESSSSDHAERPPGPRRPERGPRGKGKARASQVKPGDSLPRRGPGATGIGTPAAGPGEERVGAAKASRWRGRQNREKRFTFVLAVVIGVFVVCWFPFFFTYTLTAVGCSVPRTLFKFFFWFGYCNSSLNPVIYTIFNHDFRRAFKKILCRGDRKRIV

[6] = target: T2, Prostaglandin G/H synthase 1; assay type: functional; remark: listed apart in the source
[7] = target: 5-hydroxytryptamine receptor 2B (Homo sapiens, UniProt P41595); assay type: functional, cell-based
[8] = target: Vascular endothelial growth factor receptor 2 (Homo sapiens, UniProt P35968); assay type: functional
[9] = target: T4, Thromboxane A2 receptor (Homo sapiens, UniProt P21731); assay type: functional, cell-based
T4 sequence (P21731 whole entry): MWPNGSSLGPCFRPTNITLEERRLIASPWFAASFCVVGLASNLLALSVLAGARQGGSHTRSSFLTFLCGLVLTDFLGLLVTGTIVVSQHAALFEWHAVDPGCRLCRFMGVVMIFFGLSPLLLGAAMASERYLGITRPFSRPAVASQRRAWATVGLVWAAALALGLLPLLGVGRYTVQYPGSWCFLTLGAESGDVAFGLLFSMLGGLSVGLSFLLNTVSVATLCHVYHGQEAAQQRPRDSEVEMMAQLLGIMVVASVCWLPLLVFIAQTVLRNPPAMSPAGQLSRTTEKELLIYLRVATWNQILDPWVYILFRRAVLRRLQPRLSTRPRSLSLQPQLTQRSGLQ

[10] = target: T5, 5-hydroxytryptamine receptor 1A (Homo sapiens, UniProt P08908)
T5 sequence (P08908 whole entry): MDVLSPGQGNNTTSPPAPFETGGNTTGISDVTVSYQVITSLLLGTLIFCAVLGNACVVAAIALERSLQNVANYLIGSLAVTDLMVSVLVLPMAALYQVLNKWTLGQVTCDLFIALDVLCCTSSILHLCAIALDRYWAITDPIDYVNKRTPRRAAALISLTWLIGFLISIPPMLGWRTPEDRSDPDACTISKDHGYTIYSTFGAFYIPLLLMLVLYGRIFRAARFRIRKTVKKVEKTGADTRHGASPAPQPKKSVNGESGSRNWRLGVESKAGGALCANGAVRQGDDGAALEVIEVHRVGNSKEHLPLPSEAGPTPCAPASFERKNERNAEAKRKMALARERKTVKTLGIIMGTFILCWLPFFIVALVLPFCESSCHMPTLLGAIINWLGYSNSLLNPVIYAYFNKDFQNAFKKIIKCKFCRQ

[11] = target: Sodium-dependent serotonin transporter (Homo sapiens, UniProt P31645)
[12] = target: D(1A) dopamine receptor (Homo sapiens, UniProt P21728)
[13] = target: Prothrombin (Homo sapiens, UniProt P00734); assay type: functional
[14] = target: D(3) dopamine receptor (Homo sapiens, UniProt P35462)
[15] = target: T6, Estrogen receptor (Homo sapiens, UniProt P03372)
T6 sequence (P03372 whole entry): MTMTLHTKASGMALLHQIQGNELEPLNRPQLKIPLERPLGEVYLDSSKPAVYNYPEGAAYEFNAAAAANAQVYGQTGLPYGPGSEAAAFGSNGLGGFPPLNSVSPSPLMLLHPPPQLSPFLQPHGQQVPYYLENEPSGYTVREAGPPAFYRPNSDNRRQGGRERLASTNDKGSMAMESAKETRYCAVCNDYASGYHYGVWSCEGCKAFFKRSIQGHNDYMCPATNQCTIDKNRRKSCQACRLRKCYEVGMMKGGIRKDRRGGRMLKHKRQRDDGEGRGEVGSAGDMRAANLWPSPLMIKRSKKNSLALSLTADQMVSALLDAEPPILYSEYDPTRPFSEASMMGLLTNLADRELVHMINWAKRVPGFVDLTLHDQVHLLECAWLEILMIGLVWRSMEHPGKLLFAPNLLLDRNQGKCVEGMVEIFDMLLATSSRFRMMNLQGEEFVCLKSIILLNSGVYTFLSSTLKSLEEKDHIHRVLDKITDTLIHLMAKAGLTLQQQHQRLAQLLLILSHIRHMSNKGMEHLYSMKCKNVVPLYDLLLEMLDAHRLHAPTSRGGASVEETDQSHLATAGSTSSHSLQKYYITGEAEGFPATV
Further: assay procedure not described here.

T2 sequence (P23219 whole entry): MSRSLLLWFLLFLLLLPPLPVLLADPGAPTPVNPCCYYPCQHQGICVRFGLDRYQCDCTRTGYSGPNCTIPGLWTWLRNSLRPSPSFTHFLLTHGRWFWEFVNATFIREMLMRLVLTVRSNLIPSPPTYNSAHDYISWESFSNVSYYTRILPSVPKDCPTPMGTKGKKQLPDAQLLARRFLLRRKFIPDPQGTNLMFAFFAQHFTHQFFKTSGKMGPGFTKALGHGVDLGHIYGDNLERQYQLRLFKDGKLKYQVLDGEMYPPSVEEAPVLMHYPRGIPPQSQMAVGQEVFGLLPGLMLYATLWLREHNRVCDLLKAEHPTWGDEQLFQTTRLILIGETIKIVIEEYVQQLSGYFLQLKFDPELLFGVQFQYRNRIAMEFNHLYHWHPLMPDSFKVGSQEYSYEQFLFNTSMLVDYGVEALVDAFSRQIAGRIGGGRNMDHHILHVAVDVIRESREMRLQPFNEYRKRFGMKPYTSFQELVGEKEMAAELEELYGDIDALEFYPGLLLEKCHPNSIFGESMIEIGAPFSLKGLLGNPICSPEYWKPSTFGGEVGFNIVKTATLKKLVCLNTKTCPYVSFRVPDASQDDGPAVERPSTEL
Chain of Sodium-dependent serotonin transporter (P31645 whole entry): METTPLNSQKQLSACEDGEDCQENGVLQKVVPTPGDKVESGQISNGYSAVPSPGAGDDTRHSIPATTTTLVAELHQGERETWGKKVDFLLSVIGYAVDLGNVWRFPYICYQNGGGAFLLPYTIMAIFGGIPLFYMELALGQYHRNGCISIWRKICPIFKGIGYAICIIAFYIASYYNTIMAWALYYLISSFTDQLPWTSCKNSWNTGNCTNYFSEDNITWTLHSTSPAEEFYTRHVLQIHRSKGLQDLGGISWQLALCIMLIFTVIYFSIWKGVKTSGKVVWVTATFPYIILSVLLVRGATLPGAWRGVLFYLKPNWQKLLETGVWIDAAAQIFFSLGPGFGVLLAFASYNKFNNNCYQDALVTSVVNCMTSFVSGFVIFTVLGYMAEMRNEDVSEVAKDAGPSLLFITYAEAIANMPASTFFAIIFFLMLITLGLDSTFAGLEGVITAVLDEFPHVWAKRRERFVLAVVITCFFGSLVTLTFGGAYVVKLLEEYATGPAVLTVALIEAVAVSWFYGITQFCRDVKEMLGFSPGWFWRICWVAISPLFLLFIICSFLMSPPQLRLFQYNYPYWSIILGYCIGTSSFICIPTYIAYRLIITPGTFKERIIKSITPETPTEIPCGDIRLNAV
Chain of D(3) dopamine receptor (P35462 whole entry): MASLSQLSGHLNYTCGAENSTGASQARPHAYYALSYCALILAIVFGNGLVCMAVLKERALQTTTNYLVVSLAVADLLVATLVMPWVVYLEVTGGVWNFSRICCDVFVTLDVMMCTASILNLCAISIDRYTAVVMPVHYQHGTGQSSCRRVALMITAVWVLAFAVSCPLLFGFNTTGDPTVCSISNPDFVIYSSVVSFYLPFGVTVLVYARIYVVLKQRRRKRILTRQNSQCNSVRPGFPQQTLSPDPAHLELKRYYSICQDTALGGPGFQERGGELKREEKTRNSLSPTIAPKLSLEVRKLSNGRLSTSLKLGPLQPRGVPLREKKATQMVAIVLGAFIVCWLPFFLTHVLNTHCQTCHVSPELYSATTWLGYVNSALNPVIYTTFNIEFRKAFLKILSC
Chain of Sodium-dependent dopamine transporter (Q01959 whole entry): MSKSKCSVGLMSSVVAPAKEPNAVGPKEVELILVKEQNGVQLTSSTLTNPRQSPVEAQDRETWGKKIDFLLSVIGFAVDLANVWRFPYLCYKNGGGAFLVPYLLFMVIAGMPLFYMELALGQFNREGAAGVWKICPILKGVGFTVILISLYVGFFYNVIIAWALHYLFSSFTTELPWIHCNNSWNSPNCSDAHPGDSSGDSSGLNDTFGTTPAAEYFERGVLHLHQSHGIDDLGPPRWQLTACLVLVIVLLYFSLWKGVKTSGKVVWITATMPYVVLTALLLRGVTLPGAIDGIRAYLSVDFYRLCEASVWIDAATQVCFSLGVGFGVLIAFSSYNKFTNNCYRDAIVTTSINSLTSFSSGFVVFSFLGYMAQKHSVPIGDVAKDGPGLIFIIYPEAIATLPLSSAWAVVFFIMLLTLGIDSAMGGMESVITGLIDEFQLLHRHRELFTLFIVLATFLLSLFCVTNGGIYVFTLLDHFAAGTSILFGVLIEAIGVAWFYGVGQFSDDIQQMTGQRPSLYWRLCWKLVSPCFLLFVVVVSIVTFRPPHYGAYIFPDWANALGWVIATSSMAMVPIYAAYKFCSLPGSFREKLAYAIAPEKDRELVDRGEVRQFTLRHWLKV
Chain of D(1A) dopamine receptor (P21728 whole entry): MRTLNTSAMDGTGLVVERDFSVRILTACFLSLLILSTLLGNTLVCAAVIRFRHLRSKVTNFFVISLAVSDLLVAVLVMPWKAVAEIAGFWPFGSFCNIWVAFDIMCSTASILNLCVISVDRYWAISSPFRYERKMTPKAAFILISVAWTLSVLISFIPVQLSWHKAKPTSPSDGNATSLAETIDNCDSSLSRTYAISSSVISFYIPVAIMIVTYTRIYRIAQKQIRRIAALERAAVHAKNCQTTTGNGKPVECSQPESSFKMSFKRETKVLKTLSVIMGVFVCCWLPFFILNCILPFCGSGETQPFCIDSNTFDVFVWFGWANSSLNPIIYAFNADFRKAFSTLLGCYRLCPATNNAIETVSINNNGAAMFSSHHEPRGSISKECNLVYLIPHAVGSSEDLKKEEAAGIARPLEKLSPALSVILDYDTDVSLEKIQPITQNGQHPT
Chain of 5-hydroxytryptamine receptor 2B (P41595 whole entry): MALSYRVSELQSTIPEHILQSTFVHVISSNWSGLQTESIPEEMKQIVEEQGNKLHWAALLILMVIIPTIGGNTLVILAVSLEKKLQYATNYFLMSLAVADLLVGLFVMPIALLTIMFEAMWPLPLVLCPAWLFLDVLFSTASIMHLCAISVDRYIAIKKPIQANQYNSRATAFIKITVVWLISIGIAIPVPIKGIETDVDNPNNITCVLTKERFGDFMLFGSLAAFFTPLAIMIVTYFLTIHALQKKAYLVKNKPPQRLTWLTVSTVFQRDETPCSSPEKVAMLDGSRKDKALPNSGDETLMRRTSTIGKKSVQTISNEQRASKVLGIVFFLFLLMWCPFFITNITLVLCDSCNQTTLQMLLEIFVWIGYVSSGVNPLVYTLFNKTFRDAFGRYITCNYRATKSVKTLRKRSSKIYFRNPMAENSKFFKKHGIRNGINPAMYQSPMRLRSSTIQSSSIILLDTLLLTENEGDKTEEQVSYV
Chain of Sodium-dependent noradrenaline transporter (P23975 whole entry): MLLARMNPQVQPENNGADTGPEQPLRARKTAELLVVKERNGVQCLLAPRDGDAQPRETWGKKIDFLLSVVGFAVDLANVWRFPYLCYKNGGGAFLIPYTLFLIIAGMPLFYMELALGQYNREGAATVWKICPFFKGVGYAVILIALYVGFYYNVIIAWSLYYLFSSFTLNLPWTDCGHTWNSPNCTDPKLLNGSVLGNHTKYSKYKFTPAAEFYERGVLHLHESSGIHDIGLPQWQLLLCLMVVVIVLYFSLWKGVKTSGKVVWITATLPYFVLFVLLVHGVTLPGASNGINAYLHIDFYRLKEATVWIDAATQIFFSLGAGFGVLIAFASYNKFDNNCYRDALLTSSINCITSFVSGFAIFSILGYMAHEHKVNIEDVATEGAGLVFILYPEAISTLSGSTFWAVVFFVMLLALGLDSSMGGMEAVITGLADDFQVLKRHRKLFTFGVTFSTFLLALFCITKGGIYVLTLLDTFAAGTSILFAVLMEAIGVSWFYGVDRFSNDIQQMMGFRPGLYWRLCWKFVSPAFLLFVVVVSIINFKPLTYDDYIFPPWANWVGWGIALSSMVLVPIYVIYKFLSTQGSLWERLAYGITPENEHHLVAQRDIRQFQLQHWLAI

Structure (SMILES)	AC50 [1] [µM]	AC50 [2] [µM]	AC50 [3] [µM]	AC50 [4] [µM]	AC50 [5] [µM]	AC50 [6] [µM]	AC50 [7] [µM]	AC50 [8] [µM]	AC50 [9] [µM]	AC50 [10] [µM]	AC50 [11] [µM]	AC50 [12] [µM]	AC50 [13] [µM]	AC50 [14] [µM]	AC50 [15] [µM]
CCOC1O[C@H]([C@@H](COCc2ccccc2)OCc2ccccc2)[C@H](OCc2ccccc2)[C@H]1O (some centres undefined) [TRIBENOSIDE]	> 30	> 30	> 30	> 30	> 30	> 30	> 30	> 30	> 30	> 30	> 30	> 30	> 30		
O=c1[nH]c(=O)n([C@H]2C[C@H](O)[C@@H](CO)O2)cc1/C=C/Br [BRIVUDINE]	> 30	> 30	> 30	> 30	> 30	> 30	> 30	> 30	> 30	> 30	> 30	> 30	> 30	> 30	
CSCC[C@H](N)C(=O)O [METHIONINE]	> 30	> 30	> 30	> 30	> 30	> 30	> 30		> 30	> 30	> 30	> 30	> 30	> 30	> 30
CNC(=O)c1cnn(-c2nc(N)c3ncn([C@@H]4O[C@H](CO)[C@@H](O)[C@H]4O)c3n2)c1 [REGADENOSON ANHYDROUS]	> 30	> 30	> 30	> 30	> 30	> 30	> 30		> 30	> 30	> 30	> 30	> 30	> 30	> 30
CCn1c(=O)c2c(nc(/C=C/c3ccc(OC)c(OC)c3)n2C)n(CC)c1=O [ISTRADEFYLLINE]	> 30	> 30	> 30	> 30	> 10	> 30	> 30	> 10	> 30	10.5	> 30	> 30			
CC(C)(C)NCC(O)COc1ccccc1C#N (centres undefined) [BUNITROLOL]	> 30	> 30	> 30	> 30	27.1	> 30	> 30		> 30	0.0086	> 30	> 30	> 30	> 30	> 30
COc1ccc(C(=O)c2ccccc2)c(O)c1 [OXYBENZONE]	> 30	16.5	11.6	> 30	> 30	> 30	> 30		> 30	> 30	> 30	> 30	> 30	> 30	> 30
O=C(OOC(=O)c1ccccc1)c1ccccc1 [BENZOYL PEROXIDE]	> 30	> 30	> 30	> 30	> 30	> 30	> 30		> 30	> 30	> 30	> 30	9.02	> 30	> 30
COc1c(OCCCN2CCOCC2)ccc2c1N=C(NC(=O)c1cnc(N)nc1)N1CCN=C21 [COPANLISIB]	5.64	> 30	> 30	> 30	> 30	> 30	> 30		> 30	> 30	> 30	> 30	> 30	> 30	> 30
C[C@@H](O)[C@H]1C(=O)N2C(C(=O)O)=C(S[C@@H]3CN[C@H](C(=O)Nc4cccc(C(=O)O)c4)C3)[C@H](C)[C@H]12	> 30	> 30	> 30	19.9	> 30	10.2	> 30		> 30	> 30	> 30	> 30	> 30	> 30	15.9
CC(=O)OCC(=O)[C@@]1(O)CC[C@H]2[C@@H]3C[C@H](C)C4=CC(=O)C=C[C@]4(C)[C@H]3[C@@H](O)C[C@@]21C [METHYLPREDNISOLONE ACETATE]	> 30	> 30	> 30	> 30	> 30	> 30	> 30		> 30	> 30	> 30	> 30	11.9	> 30	> 30
Cn1c(CCCC(=O)O)nc2cc(N(CCCl)CCCl)ccc21 [BENDAMUSTINE]	> 30	> 30	> 30	5.8	> 30	> 30	> 30		> 30	> 30	> 30	> 30	> 30	> 30	> 30
CC(=O)O[C@]1(C(C)=O)CC[C@H]2[C@@H]3CCC4=CC(=O)CCC4=C3[C@@H](c3ccc(N(C)C)cc3)C[C@@]21C [ULIPRISTAL ACETATE]	> 30	> 30	> 30	> 30	> 30	> 30	> 30		> 30	> 30	> 30	> 30	> 30	> 30	9.29
